Consider 35 compounds from patent US8044069B2, “Compounds as calcium channel blockers” (Abbott Laboratories, priority 2008, dated 2011).

In the test the target is human Cav2.2 (Homo sapiens, UniProt Q00975). Nature of the test: Assessment of calcium channel activity using FLIPR (Ca2+ influx in IMR32 cells). The class given is cell-based. The note with it: IMR32 cells endogenously expressing human Cav2.2; 60 minute pre-incubation; 2 μM nifedipine; depolarized with 80 mM KCl, 5 mM CaCl2. Summed up:
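FLIPR measured Ca2+ influx triggered by 80 mM KCl depolarization together with a step to 5 mM external CaCl2. Percent inhibition relative to uninhibited activity was fitted sigmoidally for IC50.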

human Cav2.2, sequence (Q00975 whole entry): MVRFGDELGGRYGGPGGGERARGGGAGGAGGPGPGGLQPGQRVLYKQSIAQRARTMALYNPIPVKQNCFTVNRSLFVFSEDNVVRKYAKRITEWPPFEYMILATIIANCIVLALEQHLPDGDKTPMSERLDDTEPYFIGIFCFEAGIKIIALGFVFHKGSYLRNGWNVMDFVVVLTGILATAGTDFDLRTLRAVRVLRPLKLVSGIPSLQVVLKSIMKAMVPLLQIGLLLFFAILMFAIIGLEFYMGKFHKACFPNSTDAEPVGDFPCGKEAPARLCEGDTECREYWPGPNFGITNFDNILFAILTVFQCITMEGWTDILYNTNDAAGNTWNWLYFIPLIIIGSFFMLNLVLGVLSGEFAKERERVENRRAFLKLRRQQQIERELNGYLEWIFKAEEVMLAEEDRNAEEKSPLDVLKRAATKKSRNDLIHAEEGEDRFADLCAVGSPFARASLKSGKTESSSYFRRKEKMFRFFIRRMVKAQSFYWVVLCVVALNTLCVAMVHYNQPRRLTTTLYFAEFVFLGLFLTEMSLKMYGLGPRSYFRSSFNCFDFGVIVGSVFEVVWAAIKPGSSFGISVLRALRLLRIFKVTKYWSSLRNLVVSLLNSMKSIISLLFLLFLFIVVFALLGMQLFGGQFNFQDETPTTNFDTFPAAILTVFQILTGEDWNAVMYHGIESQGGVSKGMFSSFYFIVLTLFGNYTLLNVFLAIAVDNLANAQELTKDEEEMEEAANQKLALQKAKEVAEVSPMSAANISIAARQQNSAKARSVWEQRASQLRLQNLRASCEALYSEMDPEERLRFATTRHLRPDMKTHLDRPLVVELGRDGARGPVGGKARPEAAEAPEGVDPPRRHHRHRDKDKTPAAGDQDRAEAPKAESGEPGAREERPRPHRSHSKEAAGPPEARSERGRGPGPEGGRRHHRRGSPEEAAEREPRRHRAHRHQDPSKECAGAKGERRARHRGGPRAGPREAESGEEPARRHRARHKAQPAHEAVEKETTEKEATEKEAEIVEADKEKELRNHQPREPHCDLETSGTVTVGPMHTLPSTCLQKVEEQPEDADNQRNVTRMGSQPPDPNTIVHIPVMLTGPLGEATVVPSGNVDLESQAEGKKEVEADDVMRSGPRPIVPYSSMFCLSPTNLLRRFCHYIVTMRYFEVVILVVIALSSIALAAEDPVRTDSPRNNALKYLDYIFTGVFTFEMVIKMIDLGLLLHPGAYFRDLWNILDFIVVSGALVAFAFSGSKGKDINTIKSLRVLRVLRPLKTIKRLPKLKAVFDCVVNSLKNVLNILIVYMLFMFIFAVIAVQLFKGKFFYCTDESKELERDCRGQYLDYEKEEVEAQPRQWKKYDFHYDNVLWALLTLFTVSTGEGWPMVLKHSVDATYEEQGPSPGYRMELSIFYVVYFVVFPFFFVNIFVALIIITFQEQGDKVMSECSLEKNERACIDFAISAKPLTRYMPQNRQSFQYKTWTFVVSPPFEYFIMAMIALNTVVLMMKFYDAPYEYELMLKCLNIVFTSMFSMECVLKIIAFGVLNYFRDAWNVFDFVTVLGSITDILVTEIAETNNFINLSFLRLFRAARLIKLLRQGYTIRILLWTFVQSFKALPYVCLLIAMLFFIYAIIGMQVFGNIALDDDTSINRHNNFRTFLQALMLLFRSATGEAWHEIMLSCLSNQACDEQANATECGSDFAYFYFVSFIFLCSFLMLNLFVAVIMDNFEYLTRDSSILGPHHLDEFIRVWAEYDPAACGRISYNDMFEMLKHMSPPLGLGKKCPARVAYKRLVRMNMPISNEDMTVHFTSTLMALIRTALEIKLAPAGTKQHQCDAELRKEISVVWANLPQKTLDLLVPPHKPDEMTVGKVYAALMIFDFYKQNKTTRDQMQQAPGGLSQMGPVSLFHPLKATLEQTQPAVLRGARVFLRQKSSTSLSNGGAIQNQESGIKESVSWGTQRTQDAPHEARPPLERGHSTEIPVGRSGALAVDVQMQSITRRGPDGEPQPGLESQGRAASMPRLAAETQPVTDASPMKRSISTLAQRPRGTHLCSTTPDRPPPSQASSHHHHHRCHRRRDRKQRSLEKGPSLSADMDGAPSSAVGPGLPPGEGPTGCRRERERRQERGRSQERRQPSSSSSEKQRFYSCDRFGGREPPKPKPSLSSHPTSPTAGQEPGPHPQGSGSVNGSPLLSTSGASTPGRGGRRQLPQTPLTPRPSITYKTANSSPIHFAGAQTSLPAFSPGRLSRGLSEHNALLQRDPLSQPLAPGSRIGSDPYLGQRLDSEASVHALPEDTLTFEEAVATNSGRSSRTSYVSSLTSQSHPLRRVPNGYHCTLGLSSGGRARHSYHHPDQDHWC
human Cav2.2, sequence (P54289 25-951 partner limits assumed): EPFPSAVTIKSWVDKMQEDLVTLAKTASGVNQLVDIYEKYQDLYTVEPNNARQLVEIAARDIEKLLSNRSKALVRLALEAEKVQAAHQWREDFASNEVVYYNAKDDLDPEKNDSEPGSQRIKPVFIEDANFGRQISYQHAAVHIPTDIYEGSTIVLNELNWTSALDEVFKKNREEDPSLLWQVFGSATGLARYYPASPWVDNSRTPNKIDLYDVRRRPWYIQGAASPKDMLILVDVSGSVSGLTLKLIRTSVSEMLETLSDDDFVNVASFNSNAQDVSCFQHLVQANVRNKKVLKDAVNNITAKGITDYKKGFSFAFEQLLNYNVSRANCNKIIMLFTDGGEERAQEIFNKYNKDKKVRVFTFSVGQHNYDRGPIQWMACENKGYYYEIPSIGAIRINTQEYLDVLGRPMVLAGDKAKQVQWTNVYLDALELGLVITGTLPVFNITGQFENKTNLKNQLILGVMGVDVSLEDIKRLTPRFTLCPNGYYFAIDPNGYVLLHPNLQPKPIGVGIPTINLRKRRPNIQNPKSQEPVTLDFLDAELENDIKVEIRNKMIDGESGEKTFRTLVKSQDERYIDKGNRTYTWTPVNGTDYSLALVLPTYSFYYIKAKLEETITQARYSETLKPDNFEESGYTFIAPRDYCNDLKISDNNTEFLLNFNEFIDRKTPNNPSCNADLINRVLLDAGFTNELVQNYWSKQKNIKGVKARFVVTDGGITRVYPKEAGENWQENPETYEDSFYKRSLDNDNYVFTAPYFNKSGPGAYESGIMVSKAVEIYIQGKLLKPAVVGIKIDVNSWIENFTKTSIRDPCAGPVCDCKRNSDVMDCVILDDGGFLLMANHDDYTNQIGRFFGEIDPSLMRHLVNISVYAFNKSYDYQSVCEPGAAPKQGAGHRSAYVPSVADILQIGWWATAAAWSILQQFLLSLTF
human Cav2.2, sequence (P54289 952-1103 partner limits assumed): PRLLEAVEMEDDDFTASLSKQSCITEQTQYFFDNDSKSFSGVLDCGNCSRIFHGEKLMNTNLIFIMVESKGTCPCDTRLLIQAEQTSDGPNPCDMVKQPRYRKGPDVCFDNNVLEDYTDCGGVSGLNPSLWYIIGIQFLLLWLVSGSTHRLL
human Cav2.2, sequence (P54284 whole entry partner): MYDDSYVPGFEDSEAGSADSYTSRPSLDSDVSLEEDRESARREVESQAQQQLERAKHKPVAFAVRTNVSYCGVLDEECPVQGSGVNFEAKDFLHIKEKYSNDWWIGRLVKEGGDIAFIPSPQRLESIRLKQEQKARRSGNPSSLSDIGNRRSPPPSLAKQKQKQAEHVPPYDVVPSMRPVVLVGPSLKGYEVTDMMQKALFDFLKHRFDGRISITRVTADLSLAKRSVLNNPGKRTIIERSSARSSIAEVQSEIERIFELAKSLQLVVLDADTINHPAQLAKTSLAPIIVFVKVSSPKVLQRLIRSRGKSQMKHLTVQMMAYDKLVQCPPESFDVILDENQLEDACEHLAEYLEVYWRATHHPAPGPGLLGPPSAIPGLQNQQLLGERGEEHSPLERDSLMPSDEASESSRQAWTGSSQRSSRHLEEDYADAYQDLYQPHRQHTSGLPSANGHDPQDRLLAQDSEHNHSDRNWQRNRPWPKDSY

Take `O=C(CN1CCCC(c2ccccc2)(c2ccccc2)C1=O)N1CCC(=NOCc2ccccc2)CC1` [Example 163, 1-(2-{4-[(benzyloxy)imino]piperidin-1-yl}-2-oxoethyl)-3,3-diphenylpiperidin-2-one]: the IC50 is 3.79 µM.

In the case of `O=C(CN1CCC(c2ccccc2)(c2ccccc2)C1=O)NC(c1ccccc1)C1CC1` (centres unmarked) [Example 9, N-[cyclopropyl(phenyl)methyl]-2-(2-oxo-3,3-diphenylpyrrolidin-1-yl)acetamide], the IC50 came out at 2.1 µM.

Consider `O=C(CN1CCC(c2ccc(F)cc2)C1=O)N1CCc2ccc(C(F)(F)F)cc2C1` (centres unmarked) [Example 254, 3-(4-fluorophenyl)-1-{2-oxo-2-[7-(trifluoromethyl)-3,4-dihydroisoquinolin-2(1H)-yl]ethyl}pyrrolidin-2-one], for which the IC50 came to 4.32 µM.

As to `O=C(CN1CCC(c2ccccc2)(c2ccccc2)C1=O)NCc1ccc(C(F)(F)F)nc1` [Example 2, 2-(2-oxo-3,3-diphenylpyrrolidin-1-yl)-N-{[6-(trifluoromethyl)pyridin-3-yl]methyl}acetamide], the IC50 was found to be 5.28 µM.

With `O=C1N(S(=O)(=O)c2ccc(C(F)(F)F)cc2)CCC1(c1ccccc1)c1ccccc1` [Example 149, 3,3-diphenyl-1-{[4-(trifluoromethyl)phenyl]sulfonyl}pyrrolidin-2-one], the IC50 stood at 8.13 µM.

Turning to `O=C(CN1CCCC(c2ccccc2)(c2ccccc2)C1=O)N1CCC(Oc2cccc(C(F)(F)F)c2)CC1` [Example 162, 1-(2-oxo-2-{4-[3-(trifluoromethyl)phenoxy]piperidin-1-yl}ethyl)-3,3-diphenylpiperidin-2-one], the IC50 amounted to 1.86 µM.

Take `COc1ccc(CCN(C)CCN2CCCC(c3ccccc3)(c3ccccc3)C2=O)cc1OC` [Example 118, 1-{2-[[2-(3,4-dimethoxyphenyl)ethyl](methyl)amino]ethyl}-3,3-diphenylpiperidin-2-one]: the IC50 is 2.46 µM.

For the compound `O=C(CN1CCCC(c2ccccc2)(c2ccccc2)C1=O)N1C[C@@H]2CCCN(C(c3ccccc3)c3ccccc3)[C@@H]2C1` [Example 88, 1-{2-[(4aS,7aS)-1-benzhydryloctahydro-6H-pyrrolo[3,4-b]pyridin-6-yl]-2-oxoethyl}-3,3-diphenylpiperidin-2-one], the IC50 was determined as 1.64 µM.

`COc1cccc(CCN(C)CCN2CCCC(c3ccc(F)cc3)(c3ccc(F)cc3)C2=O)c1` [Example 120, 3,3-bis(4-fluorophenyl)-1-{2-[[2-(3-methoxyphenyl)ethyl](methyl)amino]ethyl}piperidin-2-one]: the IC50 came out at 1.67 µM.

Take `O=C(CN1CCC(c2ccc(F)cc2)(c2ccc(F)cc2)C1=O)N1CC2(CCN(Cc3ccccc3)CC2)C1` [Example 152, 1-[2-(7-benzyl-2,7-diazaspiro[3.5]non-2-yl)-2-oxoethyl]-3,3-bis(4-fluorophenyl)pyrrolidin-2-one]: the IC50 was found to be 0.73 µM.

For the compound `O=C(CN1CCCC(c2ccc(F)cc2)(c2ccc(F)cc2)C1=O)N1CCC(c2ccccc2)(c2ccccc2)C1` [Example 172, 1-[2-(3,3-diphenylpyrrolidin-1-yl)-2-oxoethyl]-3,3-bis(4-fluorophenyl)piperidin-2-one], the IC50 came out at 1.77 µM.

For the compound `O=C1N(Cc2nc(COc3ccc(Cl)cc3)no2)CCCC1(c1ccccc1)c1ccccc1` [Example 263, 1-({3-[(4-chlorophenoxy)methyl]-1,2,4-oxadiazol-5-yl}methyl)-3,3-diphenylpiperidin-2-one], the IC50 was determined as 3.49 µM.

As to `O=C(CN1CCC(c2ccccc2)(c2ccccc2)C1=O)NCc1nccs1` [Example 3, 2-(2-oxo-3,3-diphenylpyrrolidin-1-yl)-N-(1,3-thiazol-2-ylmethyl)acetamide], the IC50 was determined as 13.4 µM.

With `O=C(CN1CCC[C@@H](c2ccccc2)C1=O)N1Cc2ccc(F)cc2C1` (single isomer, unassigned) [Example 187], the IC50 was > 30 µM.

As to `O=C(CN1CCC(c2ccccc2)(c2ccccc2)C1=O)NCCC(c1ccccc1)c1ccccc1` [Example 13, N-(3,3-diphenylpropyl)-2-(2-oxo-3,3-diphenylpyrrolidin-1-yl)acetamide], the IC50 was 0.99 µM.

With `CC(CNC(=O)CN1CCC(c2ccc(F)cc2)(c2ccc(F)cc2)C1=O)(c1ccccc1)c1ccccc1` [Example 59, 2-[3,3-bis(4-fluorophenyl)-2-oxopyrrolidin-1-yl]-N-(2,2-diphenylpropyl)acetamide], the IC50 stood at 2.38 µM.

As to `O=C(CN1CCCC(c2ccccc2)(c2ccccc2)C1=O)N1CCC(Oc2ccc(Cl)cc2)CC1` [Example 158, 1-{2-[4-(4-chlorophenoxy)piperidin-1-yl]-2-oxoethyl}-3,3-diphenylpiperidin-2-one], the IC50 stood at 4.07 µM.

On to `O=C(CN1CCCC(c2ccccc2)C1=O)N1Cc2ccc(C(F)(F)F)cc2C1` (centres unmarked) [Example 178, 1-{2-oxo-2-[5-(trifluoromethyl)-1,3-dihydro-2H-isoindol-2-yl]ethyl}-3-phenylpiperidin-2-one], for which the half-maximal inhibitory concentration (IC50) is 7.73 µM.

For the compound `Cn1ccc(CNC(=O)CN2CCC(c3ccccc3)(c3ccccc3)C2=O)n1` [Example 4, N-[(1-methyl-1H-pyrazol-3-yl)methyl]-2-(2-oxo-3,3-diphenylpyrrolidin-1-yl)acetamide], the IC50 amounted to 29.8 µM.

In the case of `O=C(CN1CCCC(c2ccccc2)(c2ccccc2)C1=O)N1CCCC1c1ccc(F)cc1` (centres unmarked) [Example 73, 1-{2-[2-(4-fluorophenyl)pyrrolidin-1-yl]-2-oxoethyl}-3,3-diphenylpiperidin-2-one], the IC50 was found to be 3.46 µM.

Turning to `C[C@@H]1CN(C(=O)c2cccc(S(=O)(=O)N3CCC(c4ccccc4)(c4ccccc4)C3=O)c2)C[C@H](C)O1` [Example 147, 1-[(3-{[cis-2,6-dimethylmorpholin-4-yl]carbonyl}phenyl)sulfonyl]-3,3-diphenylpyrrolidin-2-one], the IC50 was 1.84 µM.

As to `O=C1N(Cc2nc(-c3ccc(Cl)cc3)no2)CCCC1(c1ccccc1)c1ccccc1` [Example 170, 1-{[3-(4-chlorophenyl)-1,2,4-oxadiazol-5-yl]methyl}-3,3-diphenylpiperidin-2-one], the IC50 was 6.7 µM.

For the compound `Cc1nc(-c2ccc(C(F)(F)F)cc2)sc1CN1CCC(c2ccccc2)(c2ccccc2)C1=O` [Example 156, 1-({4-methyl-2-[4-(trifluoromethyl)phenyl]-1,3-thiazol-5-yl}methyl)-3,3-diphenylpyrrolidin-2-one], the IC50 is 6.18 µM.

Turning to `O=C1N(S(=O)(=O)c2ccccc2C(F)(F)F)CCC1(c1ccccc1)c1ccccc1` [Example 148, 3,3-diphenyl-1-{[2-(trifluoromethyl)phenyl]sulfonyl}pyrrolidin-2-one], the IC50 worked out at 6.88 µM.

With `O=C(CN1CCC(c2ccccc2)(c2ccccc2)C1=O)Nc1ncc(C(F)(F)F)cc1Cl` [Example 249, N-[3-chloro-5-(trifluoromethyl)pyridin-2-yl]-2-(2-oxo-3,3-diphenylpyrrolidin-1-yl)acetamide], the IC50 amounted to 6.48 µM.

As to `Cc1nc(-c2cccc(C(F)(F)F)c2)sc1CN1CCC(c2ccccc2)(c2ccccc2)C1=O` [Example 157, 1-({4-methyl-2-[3-(trifluoromethyl)phenyl]-1,3-thiazol-5-yl}methyl)-3,3-diphenylpyrrolidin-2-one], the IC50 turned out to be 5.21 µM.

Consider `COc1ccc(CCN(C)CCN2CCCC(c3cccc(OC)c3)(C(C)C)C2=O)cc1` (centres unmarked) [Example 130, 3-isopropyl-3-(3-methoxyphenyl)-1-{2-[[2-(4-methoxyphenyl)ethyl](methyl)amino]ethyl}piperidin-2-one], for which the IC50 was determined as 1.13 µM.

With `COc1cc(CN2CCN(CCCN3CCCC(c4cccc(OC)c4)(C(C)C)C3=O)CC2)cc(OC)c1` (centres unmarked) [Example 133, 1-{3-[4-(3,5-dimethoxybenzyl)piperazin-1-yl]propyl}-3-isopropyl-3-(3-methoxyphenyl)piperidin-2-one], the IC50 came out at 0.67 µM.

Regarding `O=C1N(Cc2nc(CCc3ccc(Cl)cc3)no2)CCC1(c1ccc(F)cc1)c1ccc(F)cc1` [Example 165, 1-({3-[2-(4-chlorophenyl)ethyl]-1,2,4-oxadiazol-5-yl}methyl)-3,3-bis(4-fluorophenyl)pyrrolidin-2-one], the IC50 was 3.39 µM.

Take `COc1ccc(C2(c3ccc(OC)cc3)CCCN(CCCN(C)CCc3cc(OC)cc(OC)c3)C2=O)cc1` [Example 119, 1-{3-[[2-(3,5-dimethoxyphenyl)ethyl](methyl)amino]propyl}-3,3-bis(4-methoxyphenyl)piperidin-2-one]: the IC50 was 2.68 µM.

For the compound `O=C(CN1CCC(c2ccc(F)cc2Cl)C1=O)N1Cc2ccc(C(F)(F)F)cc2C1` (centres unmarked) [Example 269, 3-(2-chloro-4-fluorophenyl)-1-{2-oxo-2-[5-(trifluoromethyl)-1,3-dihydro-2H-isoindol-2-yl]ethyl}pyrrolidin-2-one], the IC50 was determined as 3.21 µM.

On to `O=C1N(CCCN2CCN(c3cccc(C(F)(F)F)c3)CC2)CCCC1(c1ccccc1)c1ccccc1` [Example 140, 3,3-diphenyl-1-(3-{4-[3-(trifluoromethyl)phenyl]piperazin-1-yl}propyl)piperidin-2-one], for which the IC50 was 1.25 µM.

In the case of `COc1ccc(CCN(C)C(=O)CN2CCCC(c3ccccc3)(c3ccccc3)C2=O)cc1OC` [Example 143, N-[2-(3,4-dimethoxyphenyl)ethyl]-N-methyl-2-(2-oxo-3,3-diphenylpiperidin-1-yl)acetamide], the IC50 worked out at 11.6 µM.

Turning to `COc1ccc(C2(c3ccc(OC)cc3)CCCN(CCCN(C)Cc3cc(OC)cc(OC)c3)C2=O)cc1` [Example 127, 1-{3-[(3,5-dimethoxybenzyl)(methyl)amino]propyl}-3,3-bis(4-methoxyphenyl)piperidin-2-one], the IC50 turned out to be 1.53 µM.

With `O=C(CN1CCCC(c2ccccc2)(c2ccccc2)C1=O)N1CCN(Cc2ccc(C(F)(F)F)cc2)CC1` [Example 80, 1-(2-oxo-2-{4-[4-(trifluoromethyl)benzyl]piperazin-1-yl}ethyl)-3,3-diphenylpiperidin-2-one], the IC50 is 1.38 µM.

In general, IC50 refers to the concentration at which inhibition is half-maximal.
